Results taken from US6635641B2 (Agouron Pharmaceuticals, Inc., priority 2000, dated 2003).
Structures can show the parent of a compound that is named as a salt. Where two headings read alike, the source gives them in different places.

Columns and labels:
[1] = target: T1, unphosphorylated VEGF-R2Δ50 (FLVK) (Homo sapiens, UniProt P35968, DEL940-989/E990V); assay: VEGF-R2 coupled spectrophotometric assay, unphosphorylated construct (FLVK); assay type: biochemical; conditions: for FLVK percent inhibition: 0.05 µM; for inhibition at 0.05 µM: @ 50 nM;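 for all read-outs here: Baculovirus-expressed cytosolic kinase domain, ADP formation linked via pyruvate kinase and lactate dehydrogenase to NADH oxidation, read as falling absorbance at 340 nm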
T1 construct: VEGF-R2Δ50 contains residues 806-939 and 990-1171; made in house; host or cells: baculovirus/insect cells

[2] = system: human umbilical vein endothelial cells (HUVEC); assay: HUVEC proliferation assay (VEGF-stimulated, MTT); assay type: cell-based; conditions: Homo sapiens
Protocol: This assay determines the ability of a test compound to inhibit the growth factor-stimulated proliferation of human umbilical vein endothelial cells (“HUVEC”). HUVEC cells (passage 3-4, Clonetics, Corp.) were thawed into EGM2 culture medium (Clonetics Corp) in T75 flasks. Fresh EGM2 medium was added to the flasks 24 hours later. Four or five days later, cells were exposed to another culture medium (F12K medium supplemented with 10% fetal bovine serum (FBS), 60 μg/ml endothelial cell growth supplement (ECGS), and 0.1 mg/ml heparin). Exponentially-growing HUVEC cells were used in experiments thereafter. Ten to twelve thousand HUVEC cells were plated in 96-well dishes in 100 μl of rich, culture medium (described above). The cells were allowed to attach for 24 hours in this medium. The medium was then removed by aspiration and 105 μl of starvation media (F12K+1% FBS) was added to each well. After 24 hours, 15 μl of test agent dissolved in 1% DMSO in starvation medium or this vehicle alone was added into each treatment well; the final DMSO concentration was 0.1%. One hour later, 30 μl of VEGF (30 ng/ml) in starvation media was added to all wells except those containing untreated controls; the final VEGF concentration was 6 ng/ml. Cellular proliferation was quantified 72 hours later by MTT dye reduction, at which time cells were exposed for 4 hours MTT (Promega Corp.). Dye reduction was stopped by addition of a stop solution (Promega Corp.) and absorbance at 595 λ was determined on a 96-well spectrophotometer plate reader.

[3] = target: T2, phosphorylated VEGF-R2Δ50 (FLVK-P) (Homo sapiens, UniProt P35968, DEL940-989/E990V); assay: VEGF-R2 coupled spectrophotometric assay, phosphorylated construct (FLVK-P); assay type: biochemical
T2 construct: VEGF-R2Δ50 contains residues 806-939 and 990-1171; made in house; host or cells: baculovirus/insect cells
Description: A construct (VEGF-R2Δ50) of the cytosolic domain of human vascular endothelial growth factor receptor 2 (VEGF-R2) lacking the 50 central residues of the 68 residues of the kinase insert domain was expressed in a baculovirus/insect cell system. Of the 1356 residues of full-length VEGF-R2, VEGF-R2Δ50 contains residues 806-939 and 990-1171, and also one point mutation (E990V) within the kinase insert domain relative to wild-type VEGF-R2. See commonly assigned, co-pending U.S. patent application Ser. No. 09/390,326, filed Sep. 7, 1999, incorporated by reference herein, for discussion of VEGF constructs and expression systems. Autophosphorylation of the purified construct was performed by incubation of the enzyme at a concentration of 4 μM in the presence of 3 mM ATP and 40 mM MgCl2 in 100 mM Hepes, pH 7.5, containing 5% glycerol and 5 mM DTT, at 4° C. for 2 h. […] See Parast et al., Biochemistry, 37, 16788-16801 (1998).
The production of ADP from ATP that accompanies phosphoryl transfer was coupled to oxidation of NADH using phosphoenolpyruvate (PEP) and a system having pyruvate kinase (PK) and lactic dehydrogenase (LDH). The oxidation of NADH was monitored by following the decrease of absorbance at 340 nm (e340=6.22 cm^−1 mM^−1) using a Beckman DU 650 spectrophotometer. Assay conditions for phosphorylated VEGF-R2Δ50 (indicated as FLVK-P in the tables below) were the following: 1 mM PEP; 250 μM NADH; 50 units of LDH/mL; 20 units of PK/mL; 5 mM DTT; 5.1 mM poly(E4Y1); 1 mM ATP; and 25 mM MgCl2 in 200 mM Hepes, pH 7.5. Assay conditions for unphosphorylated VEGF-R2Δ50 (indicated as FLVK in the tables) were the following: 1 mM PEP; 250 μM NADH; 50 units of LDH/mL; 20 units of PK/mL; 5 mM DTT; 20 mM poly(E4Y1); 3 mM ATP; and 60 mM MgCl2 and 2 mM MnCl2 in 200 mM Hepes, pH 7.5. Assays were initiated with 5 to 40 nM of enzyme. Ki values were determined by measuring enzyme activity in the presence of varying concentrations of test compounds. The data were analyzed using Enzyme Kinetic and Kaleidagraph software.

[4] = read-out: FLVK percent inhibition
[5] = unphosphorylated VEGF-R2 construct
[6] = HUVEC proliferation with albumin, read-out: Huvec + Albumin IC50

T1 sequence (P35968 with tags, fused parts or gaps DEL940-989/E990V limits assumed): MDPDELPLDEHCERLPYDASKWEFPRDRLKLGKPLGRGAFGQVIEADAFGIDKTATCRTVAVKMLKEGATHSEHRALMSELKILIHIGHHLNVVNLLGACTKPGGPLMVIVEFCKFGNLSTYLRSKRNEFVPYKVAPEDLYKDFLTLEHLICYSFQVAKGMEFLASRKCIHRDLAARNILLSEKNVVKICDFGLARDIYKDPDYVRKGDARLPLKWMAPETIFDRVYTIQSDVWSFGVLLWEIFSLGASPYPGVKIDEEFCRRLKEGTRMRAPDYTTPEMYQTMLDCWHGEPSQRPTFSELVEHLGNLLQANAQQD
T2 sequence (P35968 with tags, fused parts or gaps DEL940-989/E990V limits assumed): as above

## 5-{2-[3-(Piperazin-1-yl-trifluoromethyl-phenylcarbamoyl)-phenyl]-ethyl}nicotinic acid methyl ester dihydrochloride [CC-2]
[1]
  FLVK percent inhibition: 30% @

## CCC(C(=O)Nc1cccc(CSc2ncnc3[nH]ncc23)c1)c1ccccc1C (racemic) [Example V-15]
[1]; [4]
  inhibition at 0.05 µM: 30%

## Nc1ccc(CCc2cccc(C(=O)Nc3ccc(N4CCNCC4)c(C(F)(F)F)c3)c2)cn1 [AA-2, 3-[2-(6-Amino-pyridin-3-yl)-ethyl]-N-(4-piperazin-1-yl-3-trifluoromethyl-phenyl)-benzamide dihydrochloride]
[1]; [5]
  Ki: 25 nM
[2]; [6]
  IC50: 80 nM

## O=C(Nc1ccc(N2CCNCC2)c(C(F)(F)F)c1)c1cccc(CCc2cnc3[nH]cnc3c2)c1 [BB-1, 3-[2-(3H-Imidazo[4,5-b]pyridin-6-yl)-ethyl]-N-(4-piperazin-1-yl-3-trifluoromethyl-phenyl)-benzamide dihydrochloride]
[1]; [5]
  Ki: 10.8 nM
[2]; [6]
  IC50: 940 nM

## Cl.Cl.NC(=O)c1cncc(CCc2cccc(C(=O)Nc3ccc(N4CCNCC4)c(C(F)(F)F)c3)c2)c1 [CC-1, 5-{2-[3-(Piperazin-1-yl-trifluoromethyl-phenylcarbamoyl)-phenyl]-ethyl}-nicotinamide dihydrochloride]
[1]
  FLVK percent inhibition: 20% @

## O=C(Nc1ccc(N2CCNCC2)c(C(F)(F)F)c1)c1ccc(F)c(CCc2cnc3[nH]cnc3c2)c1 [DD-1, 4-Fluoro-3-[2-(3H-imidazo[4,5-b]pyridin-6-yl)-ethyl]-N-(4-piperazin-1-yl-3-trifluoromethyl-phenyl)-benzamide dihydrochloride]
[1]; [5]
  Ki: 5.6 nM
[2]; [6]
  IC50: 700 nM

## CC(C)c1cccc(NC(=O)c2cccc(CSc3cnccn3)c2)c1 [Example A-7, N-(3-Isopropylphenyl)-3-[(pyrazin-2-yl)sulfanylmethyl]benzamide]
[2]; HUVEC, read-out: HUVEC IC50
  IC50: > 700 nM
[3]
  Ki: 26 nM

## COc1ccc(Nc2cc(CCc3cccc(C(=O)Nc4ccc(N5CCN(C(=O)OC(C)(C)C)CC5)c(C(F)(F)F)c4)c3)[nH]n2)cn1 [Example G-9, 3-{2-[5-(6-Methoxypyridin-3-yl)amino-2H-pyrazol-3-yl]-ethyl}-N-[4-(4-t-butoxycarbonylpiperazin-1-yl)-3-trifluoromethylphenyl]benzamide]
[1]
  Ki: 2.5 nM

## O=C(Nc1cccc2c1OC(F)(F)O2)c1cccc(CCc2cncc3ccccc23)c1 [Example O-2, N-(2,2-Difluoro-benzo[1,3]dioxol-4-yl)-3-(2-isoquinolin-4-yl-ethyl)-benzamide trifluoro-acetic acid salt]
[1]; [4]
  inhibition at 0.05 µM: 13%

## CC1CCc2cc(NC(=O)c3ccc(F)c(OCc4cncc5ccccc45)c3)ccc2N1 (centres unmarked) [Example O-3, 4-Fluoro-N-(2-methyl-1,2,3,4-tetrahydroquinolin-6-yl)-3-(isoquinolin-4-yl-methoxy)-benzamide bistrifluoroacetic acid salt]
[1]
  Ki: 5.8 nM

## O=C(Nc1ccc(-n2ccnc2)c(C(F)(F)F)c1)c1ccc(F)c(OCc2cccnc2)c1 [Example R-21, 4-Fluoro-N-(4-imidazol-1-yl-3-trifluoromethyl-phenyl)-3-(pyridin-3-ylmethoxy)-benzamide]
[1]; [4]
  inhibition at 0.05 µM: 42%

## O=C(Nc1ccc(-n2cncn2)c(C(F)(F)F)c1)c1ccc(F)c(OCc2cccnc2)c1 [Example R-23, 4-Fluoro-3-(pyridin-3-ylmethoxy)-N-(4-[1,2,4]triazol-1-yl-3-trifluoromethyl-phenyl)-benzamide]
[1]; [4]
  inhibition at 0.05 µM: 50%

## O=C(Nc1cc(Cl)c(-n2ccnc2)c(Cl)c1)c1ccc(F)c(OCc2cccnc2)c1 [Example R-24, N-(3,5-Dichloro-4-imidazol-1-yl-phenyl)-4-fluoro-3-(pyridin-3-ylmethoxy)-benzamide]
[1]; [4]
  inhibition at 0.05 µM: 62%

## Cc1ccc2cc(NC(=O)c3cccc(CCc4cncc5ccccc45)c3)ccc2n1 [Example S-4, 3-(2-Isoquinolin-4-yl-ethyl)-N-(2-methyl-quinolin-6-yl)-benzamide]
[2]; HUVEC, read-out: HUVEC IC50
  IC50: > 300 nM
[3]; @ 50 nM, read-out: FLVK-P percent inhibition
  inhibition at 0.05 µM: 20%

## Cc1c(Br)cc(NC(=O)c2cccc(CCc3cncc4ccccc34)c2)cc1Br [Example S-5, N-(3,5-Dibromo-4-methyl-phenyl)-3-(2-isoquinolin-4-yl-ethyl)-benzamide]
[2]; HUVEC, read-out: HUVEC IC50
  IC50: > 300 nM
[3]
  Ki: 4.2 nM

## Cc1cc(NC(=O)c2cc(CCc3cncc4ccccc34)c(F)cc2F)ccc1C(C)C [Example S-8, 2,4-Difluoro-N-(4-isopropyl-3-methyl-phenyl)-5-(2-isoquinolin-4-yl-ethyl)-benzamide]
[1]
  Ki: 1.4 nM

## Cc1ccc(C(=O)Nc2cccc(CSc3ncnc4[nH]ncc34)c2)cc1Br [Example V-1]
[1]
  Ki: 2 nM

## CC(C)(C)c1ccc(C(=O)Nc2cccc(CSc3ncnc4[nH]ncc34)c2)cc1 [Example V-5, N-{3-[(1H-pyrazolo[3,4-d]-pyrimidin-4-yl)sulfanylmethyl]phenyl}-4-t-butylbenzamide]
[1]; [5]
  Ki: 1.4 nM

## O=C(Nc1cccc(CSc2ncnc3[nH]ncc23)c1)c1ccc(Oc2ccccc2)cc1 [Example V-6, N-{3-[(1H-pyrazolo[3,4-d]-pyrimidin-4-yl)sulfanylmethyl]phenyl}-(4-phenoxy)benzamide]
[1]; [4]
  inhibition at 0.05 µM: 12%

## O=C(Nc1cccc(CSc2ncnc3[nH]ncc23)c1)Nc1cc(C(F)(F)F)cc(C(F)(F)F)c1 [Example V-7, N-{3-[(1H-pyrazolo[3,4-d]pyrimidin-4-ylsulfanyl)methyl]phenyl}-N′-[3,5-bis-(trifluoromethyl)phenyl]urea]
[1]; [5]
  Ki: 2.6 nM

## O=C(Nc1cccnc1)Nc1cccc(CSc2ncnc3[nH]ncc23)c1 [Example V-8, N-{3-[(1H-pyrazolo[3,4-d]pyrimidin-4-ylsulfanyl)methyl]phenyl}-N′-(pyridin-3-yl)urea]
[1]; [4]
  inhibition at 0.05 µM: 0%

## CC(C)(C)c1cc(C(=O)Nc2cccc(CSc3ncnc4[nH]ncc34)c2)cc(C(C)(C)C)c1 [Example V-9, N-{3-[(1H-pyrazolo[3,4-d]-pyrimidin-4-yl)sulfanylmethyl]phenyl}-(3,5-di-t-butyl)benzamide]
[1]; [5]
  Ki: 22 nM

## O=C(Nc1cccc(CSc2ncnc3[nH]ncc23)c1)c1ccc(O)c(Br)c1 [Example V-10, 3-Bromo-4-hydroxy-N-{3-[(1H-pyrazolo[3,4-d]-pyrimidin-4-yl)sulfanylmethyl]phenyl}-benzamide]
[1]; @ 50 μM, read-out: FLVK percent inhibition
  inhibition at 50 µM: 16%

## O=C(Nc1cccc(CSc2ncnc3[nH]ncc23)c1)c1ccc2ncccc2c1 [Example V-11, N-{3-[(1H-pyrazolo[3,4-d]-pyrimidin-4-yl)sulfanylmethyl]phenyl}-quinoline-6-carboxamide]
[1]; [4]
  inhibition at 0.05 µM: 18%

## O=C(Nc1cccc(CSc2ncnc3[nH]ncc23)c1)c1cc2cc(F)ccc2[nH]1 [Example V-12, 5-Fluoro-N-{3-[(1H-pyrazolo[3,4-d]-pyrimidin-4-yl)sulfanylmethyl]-phenyl}-indole-2-carboxamide]
[1]; [4]
  inhibition at 0.05 µM: 18%

## O=C(Nc1cccc(CSc2ncnc3[nH]ncc23)c1)c1ccc2cc[nH]c2c1 [Example V-13, N-{3-[(1H-pyrazolo[3,4-d]-pyrimidin-4-yl)sulfanylmethyl]phenyl}-indole-6-carboxamide]
[1]; [4]
  inhibition at 0.05 µM: 17%
